Data as given in article PMC12040169 (PLOS Biology, 2025).

Legend:
in vitro [1] = settings: human, hela cells, % viability
[2] = system: T1, C. trachomatis L2/434/Bu expressing GFP (CTL2-GFP); assay: microbe, parasite or virus in culture; set-up: C. trachomatis total inclusion area by high-content imaging, normalised to DMSO; settings: Chlamydia trachomatis, HeLa, 28.5 h; total inclusion area; read-out: % of control remaining
T1 construct: L2/434/Bu GFP intracellular growth in HeLa cells
How it was run: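 Read-out combines bulk fluorescence and imaging: GFP tracks chlamydial growth, resorufin tracks host cell viability. Plates were then fixed and Hoechst-stained so inclusions and nuclei could be imaged and counted per well.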

in vitro [3] = assay: in vitro; set-up: Viability of infected HeLa host cells, resazurin conversion, bulk resorufin fluorescence relative to DMSO; settings: human, hela cells; bulk resorufin, mean of 2
[4] = system: T2, CTL2-GFP (C. trachomatis L2/434/Bu, GFP-expressing); assay: microbe, parasite or virus in culture; set-up: Intracellular C. trachomatis growth in HeLa cells, bulk GFP fluorescence relative to DMSO; settings: Chlamydia trachomatis, HeLa, 28.5 h; bulk GFP, mean of 2; read-out: % of control remaining
T2 construct: L2/434/Bu, GFP-expressing
Description: MICs were calculated as described above.

Compound | viability at 28.5 h, 10 µM (in vitro [1]) | activity at 1 µM [2] | activity at 5 µM [2] | activity at 10 µM [2] | viability at 28.5 h, 1 µM (in vitro [3]) | viability at 28.5 h, 5 µM (in vitro [3]) | viability at 28.5 h, 10 µM (in vitro [3]) | activity at 1 µM [4] | activity at 5 µM [4] | activity at 10 µM [4]
O=C(NCCNCCNC(=O)C1(c2ccccc2)CCCC1)C1(c2ccccc2)CCCC1 [CBK017670] | 110% | 107% | 54.1% | 8.64% | 91.6% | 93.5% | 89.5% | 123% | 49.1% | 13.5%
CC(=O)NC[C@H]1CN(c2ccc3c(c2)CCSC3)C(=O)O1 [CBK018505] | 99% | 129% | 28.5% | 9.34% | 95.5% | 101% | 101% | 142% | 29.2% | 12.6%
COC(=O)N1CCc2ccc(N3C[C@H](CNC(C)=O)OC3=O)cc2CC1 [CBK022485] | 79.8% | 128% | 35.2% | 7.61% | 88.3% | 85.8% | 90.5% | 136% | 44.2% | 12.6%
CCOc1cc(/C=N/Nc2nnc(C)n2N)ccc1O [CBK027460] | 88.9% | 115% | 81% | 31.7% | 93.3% | 88.7% | 87.4% | 109% | 57.8% | 26%
O=C(Nc1ccccc1N1CCCNCC1)c1ccc2ccccc2c1 [CBK038927T] | 97.3% | 84.9% | 7.75% | 1.67% | 115% | 114% | 116% | 94.8% | 1.41% | 8.25%
FC(F)(F)CCN1CCC2(CC1)NCCc1c2[nH]c2ccc(Cl)cc12 [CBK039331] | 91% | 56.9% | 20.2% | 7.6% | 98.2% | 105% | 108% | 123% | 46.8% | 30.2%
CC(Nc1cc(N2CCN(CCO)CC2)ccc1[N+](=O)[O-])c1ccc(Br)cc1 (stereo not drawn) [CBK041273] | 103% | 130% | 81.9% | 47.4% | 91.4% | 94.5% | 96.3% | 139% | 130% | 93.8%
CCc1cc(Br)ccc1S(=O)(=O)NC(CC)COC (stereo not drawn) [CBK045265] | 88.1% | 117% | 106% | 97.7% | 100% | 99% | 96.5% | 138% | 114% | 140%
c1ccc(-c2nnc3ccccc3c2N2CCNCC2)cc1 [CBK066888] | 107% | 97.7% | 46% | 0.17% | 114% | 106% | 105% | 125% | 82.9% | 27.1%
